Assay [1] deals with T1, Trx (Mus musculus, UniProt P10639).
T1 construct: These lysates were compared to a control group and used to quantify TrxR and Trx activity and expression; These fractions were used to quantify TrxR and Trx activity and expression; endogenous in cells; host or cells: GL261 mouse glioma cells (whole lysate, cytosolic and mitochondrial fractions)
It counts as cell-based. As to conditions: cytosol, GL261 exposed 24 h. As for the experimental part:
(§1) Total cell lysates were prepared according to previous protocols ([Branco et al., 2014]). 1 × 10^6 cells were plated in […] culture dishes incubated at 37°C until reaching 70–80% confluence. At this point, the culture medium was refreshed and TmHg and EtHg (0.5; 1; 2 µM) were added and incubated at 37°C for 24 h, after which cells were collected by trypsinization and washed with PBS 1x. Subsequently, the pellet was resuspended in lysis buffer (25 mM TrisCl, pH 7.5; 100 mM NaCl; 2.5 mM EDTA; 2.5 mM EGTA; 20 mM NaF, 1 mM sodium orthovanadate, 20 mM sodium pyrophosphate; 20 mM of sodium β-glycerophosphate, 0.5% Triton X-100, and 1 tablet of protease inhibitor cocktail per 10 ml; Roche) vortexed and frozen at −20°C. These lysates were compared to a control group and used to quantify TrxR and Trx activity and expression as described below.
(§2) To obtain the mitochondrial and cytosolic fractions, after exposure to Hg compounds cells were washed and suspended in mitochondrial isolation buffer (210 mM mannitol, 70 mM sucrose, 1 mM EDTA, 10 mM Hepes–NaOH, and pH 7.5), containing protease inhibitor cocktail (Roche). Cells were disrupted with a Teflon pestle and then centrifuged at 600 g for 10 min at 4°C. The resulting nuclear pellets were discarded, and the supernatant was further centrifuged at 13,000 g and 4°C for 15 min, to obtain the mitochondrial pellets and the supernatant soluble fraction. Mitochondrial pellets were treated with cell lysis buffer as described above for whole-cell lysates and the supernatant fraction was further centrifuged at 100,000 g and 4°C for 1 h, to produce the cytosolic fraction ([Branco et al., 2014]). These fractions were used to quantify TrxR and Trx activity and expression as described below.
(§3) The enzymatic activity of TrxR and Trx was determined according to the insulin end-point assay described by [Arnér and Holmgren (2000)] with modifications ([Branco et al., 2014]).
(§4) In parallel, control wells were prepared to contain the same reagents previously mentioned apart from Trx. After the incubation period, 250 µL of a 1 mM DTNB solution in 6 M guanidine-HCL (pH 8.0) was added to wells, and absorbance was measured at 412 nm in a microplate reader (Zenyth 3100, Anthos Labtec Instruments). […] The same procedure was done for the determination of Trx activity, but the samples were incubated with 100 nM of recombinant rat TrxR (IMCO Corp, Sweden) instead of Trx ([Branco et al., 2014]).

Assay [2] addresses T2, Trx (Mus musculus, UniProt P97493).
T2 construct: These lysates were compared to a control group and used to quantify TrxR and Trx activity and expression; These fractions were used to quantify TrxR and Trx activity and expression; endogenous in cells; host or cells: GL261 mouse glioma cells (whole lysate, cytosolic and mitochondrial fractions)
It counts as cell-based. Particulars: mitochondria, GL261 exposed 24 h. As for the experimental part: as §1, §2, §3, §4

The source of these data is paper PMC9260667, “Thioredoxin Reductase Inhibitors as Potential Antitumors: Mercury Compounds Efficacy in Glioma Cells” (Frontiers in Molecular Biosciences, 2022).

T2 sequence (P97493 60-166): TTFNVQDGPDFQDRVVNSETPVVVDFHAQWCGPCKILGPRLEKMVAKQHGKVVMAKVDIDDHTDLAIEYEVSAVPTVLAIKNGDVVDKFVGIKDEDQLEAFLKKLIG
T1 sequence (P10639 whole entry): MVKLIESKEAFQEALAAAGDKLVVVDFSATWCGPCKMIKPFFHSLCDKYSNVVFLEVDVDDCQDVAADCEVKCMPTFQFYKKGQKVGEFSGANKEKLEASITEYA

Turning to `C[CH2][Hg][S]c1ccccc1C(=O)[O-].[Na+]` [TmHg, thimerosal], the figures for the IC50 at Trx [1] and against Trx [2] were 1200 nM and 1600 nM, respectively.
